Key:
RSV A2 [1] = assay: High-throughput antiviral screening of protease inhibitor library against RSV A2 in HEp-2 cells; type: cell-based, Respiratory syncytial virus; conditions: RSV A2, MOI = 0.1, 1, 5, 10 µmol/L, 72 hpi
Description: Figure 1. Antiviral activity of metalloproteinase inhibitors against RSV in vitro. (A) Experimental workflow for RSV A2 infection and compound treatment. (B) High-throughput screening of TargetMol L1100 library (246 host protease inhibitors targeting 10 pathways: MMPs, caspases, proteasomes, apoptosis regulators, cysteine proteases, gamma-secretase, autophagy modulators, serine proteases, DPP-4, and beta-secretase) using concentration gradients (1, 5, 10 µmol/L). HEp-2 cells were pretreated with compounds for 1 hour prior to RSV A2 infection (MOI = 0.1). Plaque formation was quantified at 72 hours post-infection (hpi) and normalized to DMSO controls. […] (G) Target overlap analysis of four MMP-9-targeting inhibitors. (H) Viral titers in supernatants of HEp-2 cells transfected with MMP-specific siRNAs (24 h) followed by RSV A2 infection (MOI = 1, 72 h). mean ± SD, n = 3. The results are representatively shown with three random experiments. The error bars indicate the mean ± SD of three technical replicates (n = 3). Statistical significance was determined by one-way ANOVA with Dunnett’s post hoc test: *P < 0.05, ***P < 0.001; ns, not significant.
104 High-throughput antiviral screening
105 The L1100 protease inhibitor library (246 compounds; L1100, TargetMol) was
106 screened against RSV A2 in HEp -2 cells. Compounds (10 mM DMSO stocks) were
107 robotically dispensed 1 h pre -infection at final concentrations of 1, 5, 10 μM.
108 Infection rates (72 hpi) were normalized to PC786 (1 μM; positive control; HY -
109 111813, MCE) and 0.1% DMSO vehicle. Primary hits (>50% CPE reduction + not
110 overtly cytotoxic) underwent dose -response validation (0.00004 –10 μM) to generate
111 EC50 curves (GraphPad Prism 8.0) .
112 Evaluation of in vitro antiviral activity
113 Compound inhibitor treatments: HEp-2 cells (1.3×10⁴/well) or HBEC (1.8×10⁴/well)
114 were pretreated with test compounds for 1 h before RSV A2/B18537 infection
115 (MOI=0.1 or 0.3). Viral inhibition was quantified at 72 hpi via FFA. Fixed cells (4%
116 PFA) were permeabilized (0.3% Triton X-100), stained with anti-RSV-FITC
118 Fluorescent foci were normalized to nuclear counts (ImageJ software) for EC 50
119 determination via four-parameter logistic regression (GraphPad Prism 8.0). Data
120 represent triplicate experiments. […]

RSV A2 [2] = assay: BALB/c mouse model of RSV A2 infection, oral treatment; type: in vivo, BALB/c mice; conditions: 4 dpi, 3 × 10^6 PFU RSV A2
Experimental: To evaluate the antiviral efficacy of metalloproteinase inhibitors, we employed a BALB/c mouse model intranasally challenged with 3 × 10^6 PFU RSV A2. Mice received twice-daily oral administration of JNJ0966 (selective targeting of MMP-9 ([Scannevin et al., 2017]), 20 or 60 mg/kg [mpk]) or doxycycline hyclate (a broad-spectrum MMP inhibitor ([Patnaik et al., 2021]; [Samtani et al., 2009]), 60 or 180 mpk), beginning 2 hpi (Fig. 9A). By 4 dpi, JNJ0966 (60 mpk) and doxycycline hyclate (180 mpk) reduced lung viral titers by 2.6-fold and 2.0-fold, respectively, compared to vehicle-treated controls (Fig. 9B).
Figure 9. Therapeutic efficacy of MMP-9 inhibitors against RSV in mice. (A) Therapeutic regimen. […] Lung viral titers quantified by FFA at 4 dpi. mean ± SD, n = 5/group. […] Statistical significance was determined by one-way ANOVA with Dunnett’s post hoc test (B, D): **P < 0.01, ***P < 0.001. […]
314 50 μL of stop solution, absorbance at 540 nm was subtracted from the reading at
315 450 nm by PerkinElmer Ensight reader, and analyte concentrations were calculated […]
329 using a tissue grinder. Viral titers were quantified via FFA using 100 μL of […]
332 Two blinded pathologists independently scored histopathological changes on a 0 -4 […]
336 Body weights were monitored daily. […]
337 transcriptomic analyses. Viral loads were determined as focus -forming units per gram […]

Molecule	inhibition of RSV infection in HEp-2 cells (RSV A2 [1])	reduction of lung viral titers compared to vehicle-treated controls (RSV A2 [2]; 60 mpk oral twice daily)	reduction of lung viral titers compared to vehicle-treated controls (RSV A2 [2]; 180 mpk oral twice daily)
COc1ccccc1Nc1nc(-c2sc(NC(C)=O)nc2C)cs1 [JNJ0966]	significant dose-dependent inhibition	2.6 fold	–
Doxycycline hyclate	significant dose-dependent inhibition	–	2.0 fold

— paper PMC12888920, “MMP-9 regulates disulphide isomerase activity of TGM2 to enhance fusion glycoprotein-mediated syncytium formation of respiratory syncytial virus” (Protein & Cell, 2025)
